Experimental data as given in US20250026741A1, “INHIBITORS OF THE ONCOGENIC SHP2 PHOSPHATASE AND USES THEREOF” (Sanford Burnham Prebys Medical Discovery Institute, priority 2021, published 2025).

Tests used:
[1] = system: MOLM-13 AML cells (expressing WT SHP2); assay: Cell viability assay (CellTiter-Glo), MOLM-13; format: cell-based; details: regular MOLM-13 cells, 72 h, CRISPR comparison experiment
Description: (§1) Next, we performed an 11-day colony formation assay with TNBC cells treated with #02 or SHP099 at 5, 10, or 20 μM (FIG. 3D).
Finally, we evaluated the selectivity of our top two compounds, #01 and #02, on MOLM-13 AML cells in which SHP2 was depleted using CRISPR-Cas9 knock-out (KO). High-efficiency Cas9-editing MOLM-13 cells were generated by transducingMOLM-13 cells with a Cas9 lentiviral construct. Stable clones were tested for editing efficiency by performing TIDE analysis (45), and these MOLM13-Cas9 cells were transduced with a lentiviral construct containing an AAVS1 single guide RNA (sgRNA) and an mCherry reporter for bulk-sorting of cells with successful AAVS1 editing. […] Cells were treated with inhibitors at various concentrations (ranging from […] to 58 nM) or vehicle control (DMSO) for 72 h, before cell viability was assessed.
Viability of AML, esophageal carcinoma, and TF-1 cells was assessed using the ATP-depletion assay CellTiter-Glo® (Promega). Cells were harvested at 1×10^6/mL to 2×10^6 cells/mL with cell numbers determined by trypan blue using the Countess Cell counter (Thermo Scientific) and resuspended in culture media. […] Luminescence was read on a Tecan Spark® Multimode Microplate Reader and data analyzed using Graph Pad Prism software. […]

[2] = system: BT-549 triple-negative breast cancer cells; assay: TNBC cell viability assay (CellTiter-Glo), BT-549; format: cell-based; details: BT-549 cells, various concentrations
Description: as §1
(§2) Triple-negative breast cancer cell viability was assessed using the ATP-depletion assay CellTiter-Glo (Promega). Briefly, 2.5K cells in […] media (RPMI+10% FBS+1× Penicillin-Streptomycin (Omega Scientific)) were seeded per well of a 384-well tissue culture treated plate (Greiner). 25 nL of 1000× test compound were added using a Labcyte Echo acoustic dispenser and the cells incubated for 5 days before addition of […] of CellTiter-Glo reagent as described by the manufacturer. Luminescence was detected on a BioTek Synergy 2 microplate reader and the values normalized to those of vehicle (DMSO) treated controls before being plotted using GraphPad Prism.

[3] = system: MDA-MB-468 triple-negative breast cancer cells; assay: TNBC cell viability assay (CellTiter-Glo), MDA-MB-468; format: cell-based; details: MDA-MB-468 cells, various concentrations
Description: as §1, §2

[4] = system: TNBC cells (BT-549 and MDA-MB-468); assay: 11-day colony formation assay; format: cell-based; details: 5, 10, or 20 μM, 11 days
Description: as §1
MDA-MB-468 and […] triple-negative breast cancer cells were maintained in DMEM+10% FBS supplemented with 1× Penicillin-Streptomycin/L-Glutamine (Omega Scientific). 1.5K cells (in […]) were seeded per well of a standard 24-well tissue culture plate (Falcon) and allowed to adhere for 24 h, before the addition of drug(s) as described. After a further 96 h, media was replaced with fresh media containing the same test compounds and concentrations. After 11 days, media was removed and cells stained with 0.5% Crystal Violet (in 20% methanol) for 20 min with agitation @ 80 rpm. Stain was removed and plates with stained cells were washed by being submerged in excess deionized water and allowed to air dry overnight before imaging.

[5] = system: MOLM-13-Cas9-mCherry cells with SHP2 KO; assay: SHP2 CRISPR-Cas9 knockout inhibitor selectivity assay (cell viability); format: cell-based; details: MOLM-13-Cas9-mCherry SHP2 KO cells, 72 h
Description: Finally, we evaluated the selectivity of our top two compounds, #01 and #02, on MOLM-13 AML cells in which SHP2 was depleted using CRISPR-Cas9 knock-out (KO). High-efficiency Cas9-editing MOLM-13 cells were generated by transducingMOLM-13 cells with a Cas9 lentiviral construct. Stable clones were tested for editing efficiency by performing TIDE analysis (45), and these MOLM13-Cas9 cells were transduced with a lentiviral construct containing an AAVS1 single guide RNA (sgRNA) and an mCherry reporter for bulk-sorting of cells with successful AAVS1 editing. SHP2 KO was achieved by transducing MOLM-13-Cas9-mCherry cells with a lentivirus containing SHP2 dual sgRNAs, resulting in ˜80% reduction of SHP2 protein levels (FIG. 3G). #01, #02, and the SHP2 allosteric inhibitor SHP099 were tested in parallel on regular MOLM-13 cells (expressing WT SHP2) and MOLM-13-Cas9-mCherry cells with SHP2 KO. Cells were treated with inhibitors at various concentrations (ranging from […] to 58 nM) or vehicle control (DMSO) for 72 h, before cell viability was assessed.
High-efficiency Cas9-editing MOLM-13 cells were generated by transducing MOLM-13 cells with the pLenti-Cas9-blasticidin construct (Addgene plasmid #52962) and selecting single stable clones using flow-sorting. Clones were then tested for editing efficiency by performing TIDE analysis (45). These MOLM13-Cas9 cells were then transduced with a lentiviral construct containing an AAVS sgRNA and an mCherry reporter out of frame and downstream of an AAVS sgRNA targeting site. […]
For SHP2 KO, dual sgRNAs targeting SHP2 were cloned in the pLentiGuide puro vector (Addgene plasmid #52963) using a published protocol (50). […] SHP2 KO was evaluated by immunoblotting. […] For SHP2 KO, MOLM-13-Cas9-mCherry cells were seeded in nontreated 6-well-plates ([…] in 2.5 mL), with cell numbers determined by trypan blue using the Countess Cell counter (Thermo Scientific). […] Cell viability was assessed using the ATP-depletion assay CellTiter-Glo® (Promega) as described above, and data were analyzed using GraphPad Prism software.

[6] = system: MLL-AF10 leukemia cells expressing wild-type SHP2; assay: Cell viability assay, MLL-AF10 cells expressing wild-type SHP2; format: cell-based, mouse
Description: (§3) Cell viability assays of SHP099, #01, and #02 against mouse MLL-AF10 leukemia cells were conducted. Two MLL-AF10 cell lines were employed, one expressing wild-type SHP2, and the other expressing E76K mutant SHP2.

[7] = system: MLL-AF10 leukemia cells expressing E76K mutant SHP2; assay: Cell viability assay, MLL-AF10 cells expressing E76K mutant SHP2; format: cell-based, mouse
Description: as §3

[8] = system: p-ERK1/2 in MOLM-13 AML cells; assay: Phospho-ERK1/2 immunoblot analysis, MOLM-13; format: cell-based; details: MOLM-13, 3 h treatment; #02 3, 10, 30 μM; RMC-4550 1 μM
Description: Because SHP2 activity is critical for ERK activation, we used phospho-ERK1/2 (p-ERK1/2) as a more direct readout of SHP2 inhibitor efficacy. […] However, a greater effect of #02 was observed after 24 h treatment. […] This p-ERK rebound in MOLM-13 cells treated with RMC-4550 is reminiscent of previously reported data from human hepatoma Hep3B cells treated with SHP099.
Total protein extracts were prepared in modified RIPA lysis buffer (25 mM Tris-HCl, pH 7.4, 10% glycerol, 0.2% Triton™ X-100, 150 mM NaCl, 2 mM Na3VO4, 1 mM EDTA) containing a protease inhibitor cocktail (Roche Applied Science, Indianapolis, IN). Equal amounts of protein were separated on 4-12% (p-ERK1/2 blots) or 4-20% (SHP2 blots) Bis-Tris gels by SDS-PAGE and transferred to nitrocellulose (p-ERK1/2 blots) or 0.2 μm PVDF (SHP2 blots) membranes. Membranes were blocked in 5% dry milk (Bio-Rad, Hercules, CA) in TBS-Tween 20 (0.1% vol/vol; TBS-T) for 1 h at room temperature. Protein-bound membranes were incubated with indicated primary antibody overnight at 4° C. After washing three times with TBS-T, membranes were incubated for 1 h with horseradish peroxidase-conjugated secondary antibody, then visualized by an ECL Prime detection system (GE Healthcare). Immunoblotting experiments were carried out at least three times and representative images are shown. Densitometric quantitation of immunoblots was performed using Image Studio Lite Software. Changes of phosphorylated ERK1/2 to total ERK1/2 rations are expressed as percentage of the vehicle-treated controls. The following antibodies were used: Phospho-Erk1/2 Ab, Cell Signaling, #9101S; total Erk1/2 Ab, Cell Signaling, #9102S; SHP2 Ab, Bethyl, A301-544A, lot #1; GAPDH (14C10) mAb, Cell Signaling, #2118S, lot #14.

[9] = system: patient-derived AML cells; assay: Viability of AML patient-derived cells; format: cell-based, human; details: 10 μM, two patient samples, 2 d, 4 d, or 6 d
From the text: Patient-derived AML cells were obtained from Carol Burian and Dr. James Mason (Scripps MD Anderson, La Jolla, CA) under approved IRB protocol 13-6180. Peripheral blood mononuclear cells (PBMCs) were isolated by traditional Ficoll-Paque™ PLUS (17-1440-02, GE Healthcare) centrifugation according to the manufacturer's instructions, and red blood cells were lysed using RBC Lysis Buffer (Alfa Aesar, cat. #J62990). Final PBMCs were resuspended in Bambanker serum-free freezing medium (Wako Pure Chemical Industries, Ltd.) and stored frozen before cell viability was assessed as described below.
Viability of AML, esophageal carcinoma, and TF-1 cells was assessed using the ATP-depletion assay CellTiter-Glo® (Promega). Cells were harvested at 1×10^6/mL to 2×10^6 cells/mL with cell numbers determined by trypan blue using the Countess Cell counter (Thermo Scientific) and resuspended in culture media. 3K cells (in […]) were seeded in a 384-well format white, clear bottom microplate (#781098, Greiner) spotted with test compound or vehicle control (DMSO) using an Echo 555 Liquid Handler. […] Luminescence was read on a Tecan Spark® Multimode Microplate Reader and data analyzed using Graph Pad Prism software.

[10] = system: U-937 AML cells harboring G60R oncogenic mutation in SHP2; assay: Cell viability assay, U-937 (SHP2 G60R); format: cell-based; details: U-937 cells (SHP2 G60R), 0.123 to 30 μM, 3 d
From the text: (§4) Oncogenic gain-of-function mutations in SHP2 drive leukemogenesis in a significant number of leukemia patients. However, due to their unique mechanism of action, the existing SHP2 allosteric inhibitors lack activity against the most common SHP2 oncogenic variants. Thus, we tested whether #02 can inhibit the growth of leukemia cells expressing oncogenic SHP2 variants. […] Using the U-937 AML cell line, which harbors a G60R oncogenic mutation in SHP2, we treated cells with either #02 or RMC-4550 at various concentrations, ranging from 0.123 to 30 μM (FIG. 4A). […] We also assessed the effects of #02 and RMC-4550 on ERK1/2 activation in the SHP2 mutant U-937 cell line. Similar to the immunoblot experiments described above, U-937 AML cells were treated with either vehicle control (DMSO), #02 (1, 3, 10, or 30 μM), or with RMC-4550 (1 μM) for 24 h and processed for p-ERK1/2 immunoblot analysis (FIG. 4B).
Viability of AML, esophageal carcinoma, and TF-1 cells was assessed using the ATP-depletion assay CellTiter-Glo® (Promega). Cells were harvested at 1×10^6/mL to 2×10^6 cells/mL with cell numbers determined by trypan blue using the Countess Cell counter (Thermo Scientific) and resuspended in culture media. […] Luminescence was read on a Tecan Spark® Multimode Microplate Reader and data analyzed using Graph Pad Prism software.

[11] = system: p-ERK1/2 in U-937 AML cells (SHP2 G60R); assay: Phospho-ERK1/2 immunoblot analysis, U-937; format: cell-based; details: U-937, 24 h; #02 1, 3, 10, 30 μM; RMC-4550 1 μM
From the text: as §4
Total protein extracts were prepared in modified RIPA lysis buffer (25 mM Tris-HCl, pH 7.4, 10% glycerol, 0.2% Triton™ X-100, 150 mM NaCl, 2 mM Na3VO4, 1 mM EDTA) containing a protease inhibitor cocktail (Roche Applied Science, Indianapolis, IN). […] Densitometric quantitation of immunoblots was performed using Image Studio Lite Software. Changes of phosphorylated ERK1/2 to total ERK1/2 rations are expressed as percentage of the vehicle-treated controls. […]

Row | IC50 [1] | IC50 [6] | IC50 [10] | SMILES | effect on TNBC cell viability [2] | effect on TNBC cell viability [3] | effect on colony formation [4] | effect on viability of SHP2 KO cells [5] | cell viability IC50 [7] | ERK1/2 activation (p-ERK1/2 levels) [8] | effect on growth of patient-derived AML samples [9] | ERK1/2 activation (p-ERK1/2 levels) [11]
1 | 9.4 µM | 4 µM |  | CC1(N)CCN(c2cnc(-c3cccc(Cl)c3Cl)c(N)n2)CC1 [SHP099, reference compound] | very minor effect on TNBC cell viability | very minor effect on TNBC cell viability | very weak effect on colony formation | either no effect, or a greatly reduced effect | insufficient for an IC50 value to be determined |  |  | 
2 |  |  | 33 µM | Cc1nc(N2CCC3(CC2)CO[C@@H](C)[C@H]3N)c(CO)nc1-c1cccc(Cl)c1Cl [RMC-4550, reference compound] |  |  |  |  |  | highly effective in impeding ERK1/2 activation | only affected the growth of sample 2 | a decrease in p-ERK1/2 levels was not detectable
